In ChEMBL document CHEMBL3621167, “Therapeutic Potential of 5-HT6 Receptor Agonists” (J Med Chem, 2015):

Columns and labels:
[1] = molecular target: 5-hydroxytryptamine receptor 6 (Homo sapiens, UniProt P50406); assay: Agonist activity at 5-HT6 receptor (unknown origin)
[2] = molecular target: 5-hydroxytryptamine receptor 6 (Rattus norvegicus, UniProt P31388); assay: Displacement of [3H] lysergic acid diethylamide from rat 5-HT6 receptor transfected in HEK293 cells after 60 mins by scintillation counter; type: cell-based
Sequence of 5-hydroxytryptamine receptor 6 (Rattus norvegicus, UniProt P31388) (P31388 whole entry): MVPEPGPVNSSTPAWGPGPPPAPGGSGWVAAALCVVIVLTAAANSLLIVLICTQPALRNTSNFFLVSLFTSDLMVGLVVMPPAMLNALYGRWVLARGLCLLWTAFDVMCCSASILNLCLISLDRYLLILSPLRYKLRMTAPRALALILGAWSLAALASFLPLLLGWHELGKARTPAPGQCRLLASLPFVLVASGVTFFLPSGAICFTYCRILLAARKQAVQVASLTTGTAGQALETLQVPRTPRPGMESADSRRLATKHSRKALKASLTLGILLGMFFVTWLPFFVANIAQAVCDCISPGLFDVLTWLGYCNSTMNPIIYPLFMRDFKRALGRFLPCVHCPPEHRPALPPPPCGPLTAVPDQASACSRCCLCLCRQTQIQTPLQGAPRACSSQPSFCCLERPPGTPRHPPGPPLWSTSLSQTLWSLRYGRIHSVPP

[3] = Selectivity ratio of Ki for 5-HT2B receptor (unknown origin) to Ki for rat 5-HT6 receptor
[4] = molecular target: 5-hydroxytryptamine receptor 2B (Homo sapiens, UniProt P41595); assay: Binding affinity to 5-HT2B receptor (unknown origin)
Sequence of 5-hydroxytryptamine receptor 2B (P41595 whole entry): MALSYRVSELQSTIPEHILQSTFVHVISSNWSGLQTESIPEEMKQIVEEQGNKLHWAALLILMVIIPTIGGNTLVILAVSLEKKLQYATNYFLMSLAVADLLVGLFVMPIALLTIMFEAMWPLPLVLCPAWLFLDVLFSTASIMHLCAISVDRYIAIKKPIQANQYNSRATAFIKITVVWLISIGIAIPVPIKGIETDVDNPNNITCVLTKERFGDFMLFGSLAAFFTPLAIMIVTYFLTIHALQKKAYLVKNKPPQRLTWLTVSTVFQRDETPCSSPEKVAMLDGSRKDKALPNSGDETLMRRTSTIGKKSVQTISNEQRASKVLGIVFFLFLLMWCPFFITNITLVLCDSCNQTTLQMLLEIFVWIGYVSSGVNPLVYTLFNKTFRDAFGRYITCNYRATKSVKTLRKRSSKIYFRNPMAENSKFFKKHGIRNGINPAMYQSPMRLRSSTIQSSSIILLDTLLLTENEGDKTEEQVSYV

[5] = Selectivity ratio of Ki for 5-HT7 receptor (unknown origin) to Ki for rat 5-HT6 receptor
[6] = molecular target: 5-hydroxytryptamine receptor 7 (Homo sapiens, UniProt P34969); assay: Binding affinity to 5-HT7 receptor (unknown origin)
Sequence of 5-hydroxytryptamine receptor 7 (P34969 whole entry): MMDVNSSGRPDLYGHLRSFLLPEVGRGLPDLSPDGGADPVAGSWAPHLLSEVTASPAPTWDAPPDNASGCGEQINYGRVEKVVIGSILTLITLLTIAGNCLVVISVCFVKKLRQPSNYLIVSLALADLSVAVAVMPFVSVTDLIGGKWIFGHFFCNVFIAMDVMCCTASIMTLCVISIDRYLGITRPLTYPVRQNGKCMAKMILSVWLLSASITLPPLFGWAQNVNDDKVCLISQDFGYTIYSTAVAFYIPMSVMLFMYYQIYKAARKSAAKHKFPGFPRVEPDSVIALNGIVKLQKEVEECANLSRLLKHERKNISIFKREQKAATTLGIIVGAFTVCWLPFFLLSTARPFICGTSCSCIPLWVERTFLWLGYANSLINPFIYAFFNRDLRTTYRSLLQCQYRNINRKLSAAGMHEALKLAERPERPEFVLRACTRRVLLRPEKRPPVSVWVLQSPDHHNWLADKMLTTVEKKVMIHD

[7] = molecular target: T1, Adrenergic receptor alpha-1 (Rattus norvegicus, UniProt P15823+P23944+P43140); assay: Binding affinity to rat alpha1 adrenergic receptor
T1 sequence (P15823 whole entry): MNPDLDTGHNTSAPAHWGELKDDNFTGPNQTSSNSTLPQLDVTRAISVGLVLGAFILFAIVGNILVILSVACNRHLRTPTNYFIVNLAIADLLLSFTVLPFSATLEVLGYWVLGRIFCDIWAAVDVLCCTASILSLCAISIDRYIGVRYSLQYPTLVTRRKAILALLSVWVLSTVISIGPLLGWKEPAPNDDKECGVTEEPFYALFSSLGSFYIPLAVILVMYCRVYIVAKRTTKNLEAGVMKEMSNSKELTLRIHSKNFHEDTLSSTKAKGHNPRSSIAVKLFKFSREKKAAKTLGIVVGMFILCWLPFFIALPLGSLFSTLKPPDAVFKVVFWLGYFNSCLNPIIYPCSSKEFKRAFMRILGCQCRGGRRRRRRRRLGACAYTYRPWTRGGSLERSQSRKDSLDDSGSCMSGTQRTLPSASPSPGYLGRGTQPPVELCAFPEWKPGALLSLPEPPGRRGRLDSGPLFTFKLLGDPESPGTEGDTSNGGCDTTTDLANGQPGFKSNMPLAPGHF
T1 sequence (P23944 whole entry): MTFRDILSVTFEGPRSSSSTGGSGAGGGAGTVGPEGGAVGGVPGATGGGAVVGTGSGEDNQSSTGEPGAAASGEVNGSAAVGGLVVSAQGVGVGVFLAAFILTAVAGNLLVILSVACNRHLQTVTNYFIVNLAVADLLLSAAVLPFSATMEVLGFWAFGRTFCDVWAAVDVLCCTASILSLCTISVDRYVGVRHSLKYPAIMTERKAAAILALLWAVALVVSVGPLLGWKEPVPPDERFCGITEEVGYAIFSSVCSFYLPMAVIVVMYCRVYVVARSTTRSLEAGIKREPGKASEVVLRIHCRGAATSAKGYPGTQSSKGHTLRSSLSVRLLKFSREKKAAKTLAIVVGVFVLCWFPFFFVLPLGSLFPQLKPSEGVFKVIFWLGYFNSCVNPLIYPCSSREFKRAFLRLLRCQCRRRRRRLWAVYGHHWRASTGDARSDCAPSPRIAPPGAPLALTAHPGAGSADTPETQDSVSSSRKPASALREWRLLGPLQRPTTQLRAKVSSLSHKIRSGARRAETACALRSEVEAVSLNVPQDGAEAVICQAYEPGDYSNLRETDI
T1 sequence (P43140 whole entry): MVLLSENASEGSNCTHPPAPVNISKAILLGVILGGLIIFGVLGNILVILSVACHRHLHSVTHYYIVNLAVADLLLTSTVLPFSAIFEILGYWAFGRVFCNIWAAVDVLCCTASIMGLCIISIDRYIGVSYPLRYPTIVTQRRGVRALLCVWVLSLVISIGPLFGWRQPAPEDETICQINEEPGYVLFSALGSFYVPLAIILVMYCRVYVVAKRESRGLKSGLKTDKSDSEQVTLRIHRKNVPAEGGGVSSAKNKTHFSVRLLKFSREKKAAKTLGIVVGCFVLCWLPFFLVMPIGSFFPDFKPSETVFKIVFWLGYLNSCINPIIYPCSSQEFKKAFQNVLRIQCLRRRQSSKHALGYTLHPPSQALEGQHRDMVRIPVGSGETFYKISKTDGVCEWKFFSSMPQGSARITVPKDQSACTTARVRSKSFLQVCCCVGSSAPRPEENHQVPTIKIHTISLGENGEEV

[8] = molecular target: T2, Adrenergic receptor alpha-2 (Homo sapiens, UniProt P08913+P18825+P18089); assay: Binding affinity to human recombinant alpha2 adrenergic receptor; type: protein assay
T2 sequence (P08913 whole entry): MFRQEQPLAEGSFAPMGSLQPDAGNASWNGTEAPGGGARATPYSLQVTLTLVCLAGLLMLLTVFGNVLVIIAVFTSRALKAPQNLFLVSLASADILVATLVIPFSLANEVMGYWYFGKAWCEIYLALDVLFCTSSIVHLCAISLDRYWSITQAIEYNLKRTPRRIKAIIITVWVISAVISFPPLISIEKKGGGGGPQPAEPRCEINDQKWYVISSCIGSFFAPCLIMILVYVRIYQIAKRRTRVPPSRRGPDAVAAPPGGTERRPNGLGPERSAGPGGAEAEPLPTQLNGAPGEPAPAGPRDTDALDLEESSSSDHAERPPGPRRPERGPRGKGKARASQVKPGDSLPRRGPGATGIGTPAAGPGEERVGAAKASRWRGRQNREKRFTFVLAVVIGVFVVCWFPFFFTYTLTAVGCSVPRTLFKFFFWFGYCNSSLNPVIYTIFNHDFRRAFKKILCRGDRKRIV
T2 sequence (P18825 whole entry): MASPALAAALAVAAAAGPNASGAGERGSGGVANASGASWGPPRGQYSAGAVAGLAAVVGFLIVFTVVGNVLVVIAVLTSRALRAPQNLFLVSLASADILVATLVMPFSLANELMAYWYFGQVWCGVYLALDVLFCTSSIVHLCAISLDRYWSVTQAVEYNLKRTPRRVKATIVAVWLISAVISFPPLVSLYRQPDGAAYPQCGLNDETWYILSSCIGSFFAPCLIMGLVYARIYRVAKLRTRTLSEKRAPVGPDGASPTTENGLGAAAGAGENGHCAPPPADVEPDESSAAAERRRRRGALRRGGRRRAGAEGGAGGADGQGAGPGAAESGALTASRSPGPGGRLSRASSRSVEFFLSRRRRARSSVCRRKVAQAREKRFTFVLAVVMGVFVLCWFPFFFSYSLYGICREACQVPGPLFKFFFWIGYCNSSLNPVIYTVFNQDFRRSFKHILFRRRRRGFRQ
T2 sequence (P18089 whole entry): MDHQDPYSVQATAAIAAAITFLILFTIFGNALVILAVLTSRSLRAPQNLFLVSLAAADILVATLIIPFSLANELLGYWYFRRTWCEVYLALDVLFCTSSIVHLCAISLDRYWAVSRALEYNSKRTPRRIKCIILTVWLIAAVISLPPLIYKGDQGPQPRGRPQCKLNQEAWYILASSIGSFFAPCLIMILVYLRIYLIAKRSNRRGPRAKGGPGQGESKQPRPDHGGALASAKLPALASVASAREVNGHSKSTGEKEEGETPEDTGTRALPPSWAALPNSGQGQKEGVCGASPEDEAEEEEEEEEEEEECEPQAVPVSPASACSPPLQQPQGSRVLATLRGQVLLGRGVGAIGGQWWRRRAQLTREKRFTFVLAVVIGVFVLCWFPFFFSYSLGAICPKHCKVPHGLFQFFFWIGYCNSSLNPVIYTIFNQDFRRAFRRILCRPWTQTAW

[9] = molecular target: T3, Adrenergic receptor alpha-2 (Rattus norvegicus, UniProt P22086+P19328+P22909); assay: Binding affinity to rat alpha2 adrenergic receptor
T3 sequence (P22086 whole entry): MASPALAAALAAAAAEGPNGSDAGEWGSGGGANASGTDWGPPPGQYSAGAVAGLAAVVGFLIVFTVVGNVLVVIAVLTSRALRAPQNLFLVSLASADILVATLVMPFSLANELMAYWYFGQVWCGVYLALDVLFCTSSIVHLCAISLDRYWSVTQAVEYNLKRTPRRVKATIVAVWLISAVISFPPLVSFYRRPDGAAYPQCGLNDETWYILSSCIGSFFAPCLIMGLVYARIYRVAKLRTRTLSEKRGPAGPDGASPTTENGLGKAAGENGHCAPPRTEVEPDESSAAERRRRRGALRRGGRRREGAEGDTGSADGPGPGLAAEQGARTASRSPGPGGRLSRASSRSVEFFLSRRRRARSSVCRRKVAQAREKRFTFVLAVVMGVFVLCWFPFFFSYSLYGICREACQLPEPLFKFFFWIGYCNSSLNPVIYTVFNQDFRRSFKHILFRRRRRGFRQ
T3 sequence (P19328 whole entry): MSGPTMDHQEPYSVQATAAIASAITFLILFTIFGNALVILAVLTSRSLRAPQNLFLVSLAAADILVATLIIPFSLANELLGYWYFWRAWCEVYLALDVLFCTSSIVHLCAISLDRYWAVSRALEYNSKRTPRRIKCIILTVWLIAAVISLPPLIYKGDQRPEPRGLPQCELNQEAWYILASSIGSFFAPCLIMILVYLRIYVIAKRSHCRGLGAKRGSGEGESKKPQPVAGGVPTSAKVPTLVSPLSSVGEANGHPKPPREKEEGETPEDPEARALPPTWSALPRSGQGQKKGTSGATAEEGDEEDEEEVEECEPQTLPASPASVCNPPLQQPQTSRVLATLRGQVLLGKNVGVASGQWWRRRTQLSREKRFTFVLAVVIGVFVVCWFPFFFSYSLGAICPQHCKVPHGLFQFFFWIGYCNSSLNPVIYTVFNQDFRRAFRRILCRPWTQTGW
T3 sequence (P22909 whole entry): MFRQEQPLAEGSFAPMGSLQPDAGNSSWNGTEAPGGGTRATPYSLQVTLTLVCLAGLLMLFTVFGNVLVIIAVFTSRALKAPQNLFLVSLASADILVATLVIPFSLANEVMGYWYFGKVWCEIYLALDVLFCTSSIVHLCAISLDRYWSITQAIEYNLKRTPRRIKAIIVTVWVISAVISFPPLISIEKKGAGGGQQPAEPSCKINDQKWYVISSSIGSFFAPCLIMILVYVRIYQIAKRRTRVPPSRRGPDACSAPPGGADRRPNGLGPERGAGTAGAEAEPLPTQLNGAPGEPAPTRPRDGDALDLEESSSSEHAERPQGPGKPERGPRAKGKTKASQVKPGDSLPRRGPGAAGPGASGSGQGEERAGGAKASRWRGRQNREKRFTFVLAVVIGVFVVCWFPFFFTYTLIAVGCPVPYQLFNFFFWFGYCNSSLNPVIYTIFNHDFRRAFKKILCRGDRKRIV

Homo sapiens [10] = organism: Homo sapiens; assay: Selectivity ratio of Ki for human 5-HT1A receptor to Ki for human 5-HT6 receptor
Homo sapiens [11] = organism: Homo sapiens; assay: Selectivity ratio of Ki for human 5-HT1D receptor to Ki for human 5-HT6 receptor
Homo sapiens [12] = organism: Homo sapiens; assay: Selectivity ratio of Ki for human 5-HT7 receptor to Ki for human 5-HT6 receptor
Homo sapiens [13] = organism: Homo sapiens; assay: Selectivity ratio of Ki for human 5-HT1B receptor to Ki for human 5-HT6 receptor
Homo sapiens [14] = organism: Homo sapiens; assay: Selectivity ratio of Ki for human 5-HT1F receptor to Ki for human 5-HT6 receptor
Homo sapiens [15] = organism: Homo sapiens; assay: Selectivity ratio of Ki for human 5-HT5A receptor to Ki for human 5-HT6 receptor

Sequence of 5-hydroxytryptamine receptor 6 (Homo sapiens, UniProt P50406) (P50406 whole entry): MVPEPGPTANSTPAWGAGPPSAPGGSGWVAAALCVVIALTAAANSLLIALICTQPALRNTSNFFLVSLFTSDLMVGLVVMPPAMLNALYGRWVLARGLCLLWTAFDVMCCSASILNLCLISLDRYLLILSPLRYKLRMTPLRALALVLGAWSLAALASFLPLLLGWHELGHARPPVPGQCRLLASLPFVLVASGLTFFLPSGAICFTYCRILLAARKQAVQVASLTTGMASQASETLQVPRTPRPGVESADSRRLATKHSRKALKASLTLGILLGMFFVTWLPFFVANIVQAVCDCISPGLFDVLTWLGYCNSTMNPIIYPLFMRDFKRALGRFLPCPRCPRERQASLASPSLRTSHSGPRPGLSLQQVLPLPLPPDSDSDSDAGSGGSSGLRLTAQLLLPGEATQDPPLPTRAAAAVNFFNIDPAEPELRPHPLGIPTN

Structure (SMILES)	EC50 [1] [nM]	Ki [2] [nM]	Ratio Ki [3]	Ki [4] [nM]	Ratio Ki [5]	Ki [6] [nM]	Ki [7] [nM]	Ki [8] [nM]	Ki [9] [nM]	Ratio Ki (Homo sapiens [10])	Ratio Ki (Homo sapiens [11])	Ratio Ki (Homo sapiens [12])	Ratio Ki (Homo sapiens [13])	Ratio Ki (Homo sapiens [14])	Ratio Ki (Homo sapiens [15])
Cc1[nH]c2ccc(Cl)cc2c1CCN(C)C	44.8	28.8	8	245	10	290	300	300	300						
CN(C)CCc1cn(S(=O)(=O)c2ccccc2)c2ccccc12										> 100	> 100	> 100	> 100	> 100	> 100
